# From US20260355318A1, “MOLECULAR MACHINES FOR TREATMENT OF CANCER, FUNGAL INFECTIONS, OR BACTERIAL INFECTIONS” (priority 2022, published 2026)
# Tests used:
# C. albicans = assay: MIC, visible-light-activated MMs and conventional antifungals, C. albicans; format: cell-based, Candida albicans (ATCC 18804); details: Candida albicans, read-out: MIC of antifungal agent
# Summary of the method: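 C. albicans suspensions (~10^4 CFU/mL in saline, CLSI) incubated 30 min in the dark with MMs, then irradiated with stirring at 405 nm, 292 mW cm^−2 for 5 min (87.6 J cm^−2). Cells then grown in MOPS-buffered RPMI 1640 (pH 7.0) at 30 °C for 48 h; MIC is lowest concentration with no visible growth; conventional antifungals tested likewise.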
# T. rubrum = assay: MIC, MMs and antifungals, T. rubrum; format: cell-based, Trichophyton rubrum (ATCC 10218); details: Trichophyton rubrum, read-out: MIC of antifungal agent
# Experimental: Cell suspensions for susceptibility testing (MMs and conventional antifungals) were prepared per the Clinical & Laboratory Standards Institute (CLSI) guidelines (CLSI, 2017; CLSI, 2008). Before testing, yeasts (C. albicans and S. cerevisiae) were sub-cultured in Sabouraud Dextrose Agar-Emmons Modification (SDAE) plates and grown for 24 h at 30 °C. Five independent colonies from 24-h-old plates were collected and diluted to ~10^4 colony forming units (CFU) per mL in sterile saline (CLSI, 2017). Molds (A. fumigatus and the dermatophytes T. rubrum and M. gypseum) were sub-cultured on SDAE medium and incubated for 7 days at 28 °C. Conidia were recovered by covering the plates with sterile distilled water and scraping the colonies. The suspensions were filtered (8-μm pore size) and diluted in saline to ~10^4 CFU mL^−1 (Santos and Hamdan, 2005).
# After a 30-min incubation in the dark, cell suspensions were transferred to small, sterilized glass beakers, which were then placed in a water bath. Each sample was irradiated with 405-nm light at 292 mW cm^−2 for 5 min, corresponding to a light dose of 87.6 J cm^−2, determined using an S415C thermal power sensor (Thorlabs, Newton, MA, USA). During irradiation, the cell suspensions were agitated with a small metal stirrer. […]
# S. aureus [1] = assay: MIC, S. aureus; format: cell-based, Staphylococcus aureus; details: Staphylococcus aureus, read-out: Antibiotic MIC
# Experimental: (§1) The appropriate volume of an MM stock at 8 mM necessary to achieve a concentration ranging from 0.3125 to 40 μM was pipetted into a 2 mL microcentrifuge tube to which 1 mL of cell suspension prepared as previously described was added. Corresponding negative controls (DMSO only) were prepared in the same way. The mixture was gently mixed by pipetting and incubated in the dark at 30 or 37 ° C, depending on the strain, for 30 min with agitation (220 rpm). Afterward, MM- or DMSO-treated cells were dispensed in one well of a 24-well plate positioned in the center of the light beam (405 nm LED Light, Prizmatix, UHP—F-5-405) placed at the appropriate distance necessary to achieve the desired light intensity of 304 mW cm-2, 146 mW cm2 or 87 mW cm2, as measured with a handheld digital power meter console coupled to an S415C thermal power sensor head (Thorlabs, Newton, MA, USA). The temperature during irradiation was monitored using a thermocouple probe (Model SC-TT-K-30-36-PP; Omega Engineering, Inc., Stanford, CT, USA). Samples were agitated during irradiation. Dark controls were prepared as previously described except that no irradiation was provided.
# (§2) For MIC determination, samples treated with a range of concentrations of the different MM, as described above and were irradiated one at a time for 5 min at 146 mW cm^−2 (43.8 J cm^−2), after which irradiated aliquots were collected and inoculated into 1 mL MHB in a 2 mL microcentrifuge tube. Samples were incubated overnight at 30 or 37 ° C, depending on the strain, without agitation. Corresponding non-irradiated samples and negative controls (without bacteria) were also included. The following day, cultures were inspected for growth and the MIC was identified. The experimental procedure used to determine the MIC of visible light-activated MMs is schematically depicted in FIG. 26.
# [2] = tested on: biofilms of P. aeruginosa and S. aureus; assay: Biofilm total bacterial cell number (acridine orange); format: cell-based, Pseudomonas aeruginosa, Staphylococcus aureus; details: 2×MIC, vs untreated controls
# Experimental: (§3) This combination of methods is effective at evaluating the antibiofilm potential of chemicals (Stiefel et al., 2016). P. aeruginosa and S. aureus were grown overnight in tryptic soy broth (TSB) medium. The overnight cultures were diluted in 1:100 in fresh media and 100 μL aliquots were distributed in a 96-well plate. After 24 h of static growth at 37 ° C, planktonic cells were removed by inverting the plate onto a stack of paper towels, and the biofilm was washed three times with PBS. After washing, MM 1, MM 5, or MM 6 were added at 2×MIC to the biofilm and incubated statically in the dark for 60 min. The biofilm was then irradiated for 15, 30, or 45 min at 146 mW cm2. For the determination of the total bacterial number, acridine orange solution (2% in H2O) diluted 1:100 in Walpole's buffer (27.2 g L-1 sodium acetate trihydrate, adjusted to pH 4 with glacial acetic acid) was added to the wells.
# [3] = tested on: biofilms of P. aeruginosa and S. aureus; assay: Biofilm metabolically active cells (ATP); format: cell-based, Pseudomonas aeruginosa, Staphylococcus aureus; details: 2×MIC, antibiotics 45 min, MMs 15 min + light, vs untreated
# Experimental: as §3
# For quantification of viable cells in biofilms, following the addition of 100 μL […] of TSB to each well, bacteria were detached from the biofilm by thorough mixing, after which […] of BacTiter-Glo™ reagent, prepared according to the manufacturer's instructions, was added to each well.
# S. aureus [4] = assay: G. mellonella burn wound infection model, S. aureus; format: in vivo, Galleria mellonella; details: S. aureus-infected G. mellonella, 1×MIC
# Experimental: (§4) Animal studies were conducted in the burn wound model Galleria mellonella recently described (Maslova et al., 2020). […] Larvae were sorted into Petri dishes lined with Whatman filter paper (Fisher Scientific, Pittsburgh, PA) and stored at 4 ° C until use. The larval bodies were sterilized with 70% ethanol. The burn was generated using a soldering iron (Weller WE1010 ESD-Safe Digital 70-Watt Soldering Station, 120V, Weller Company, Easton, PA, USA) to achieve a consistent burn area of ≈2 mm^2 in the middle section of the back of larvae. This location was chosen so the wound could be easily visualized without having to physically manipulate the larvae. Immediately post-burn, the wound was inoculated with 10 μL of 1:10 dilution of an overnight culture of A. baumannii or S. aureus. […] In order to minimize any potential temperature effects, a constant flow of 0.2 μm pore-size-filtered air was provided to the surface of the worm. Dark 1% DMSO controls were also included. The mortality of larvae post-treatment was monitored for up to 7 days. Mortality was recorded by complete melanization of the larval body and complete loss of motility. A brief overview of the protocol is schematically depicted in FIG. 44A. Work in Galleria mellonella was reviewed and approved by the Office of Sponsored Projects and Research Compliance (SPARC) of Rice University.
# A. baumannii [5] = assay: MIC, A. baumannii; format: cell-based, Acinetobacter baumannii; details: A. baumannii, broth microdilution
# Experimental: as §1, §2
# A. baumannii [6] = assay: G. mellonella burn wound infection model, A. baumannii; format: in vivo, Galleria mellonella; details: A. baumannii-infected G. mellonella, 1×MIC
# Experimental: as §4
compound,measurement,setting,value
"Cc1cc(C2CCCCC2)n(O)c(=O)c1 [Ciclopirox (CPX), Ciclopirox]",MIC,C. albicans,1 µg/mL
same,MIC,T. rubrum,0.5 µg/mL
NC[C@H]1O[C@H](O[C@H]2[C@H](O)[C@@H](O[C@H]3O[C@H](CO)[C@@H](O)[C@H](N)[C@H]3O)[C@H](N)C[C@@H]2N)[C@H](N)C[C@@H]1O [Tobramycin],MIC,S. aureus [1],4 µg/mL
same,reduction in total bacterial cell number in biofilm,[2],up to 43%
same,reduction in metabolically active cells in biofilm,[3],27%
same,mortality after 7 days,S. aureus [4],33%
Polymyxin B [reference compound],Antibiotic MIC,A. baumannii [5],0.125 μg per mL
same,mortality after 7 days,A. baumannii [6],69%
